The results in this text go back to patent publication US9193746B2, “Luminescent metal complexes and associated technology” (BIOTIUM, INC., priority 2006, dated 2015).

In this assay the test system is electrophoretically separated proteins (Precision Plus Protein Standard) in a SDS-PAGE gel. The assay is described as follows: Detection of electrophoretically separated proteins in a SDS-PAGE gel by luminescent staining. As to conditions: for Staining of proteins in gel (yes/no): Example 18, FIG. 4: 1.5 μM complex, 30% MeOH, 14% acetic acid, room temperature, 90 minutes.

Procedure: A gel preparation procedure is now described. Five μL of an unstained Precision Plus Protein Standard (Catalog No. 161-0363 from Bio-Rad Laboratories (Hercules, Calif.) (hereinafter, “Bio-Rad”)) were separated on the left column of a polyacrylamide pre-cast gel (Catalog No. 161-1176, a Ready Gel from Bio-Rad) in running buffer containing 20 mM glycine, 2.5 mM Tris and 0.1% SDS, using a standard SDS-PAGE procedure. Five 5 μL of the same standard diluted five times were separated on the right column of the polyacrylamide pre-cast gel under the same conditions.
The foregoing procedure was used to prepare one gel, which was further processed as described below using a particular staining solution. Separately, the same procedure was used to prepare another gel, which was further processed as described below using a different staining solution.
At the end of each of these periods, the gel was taken out of the solution, illuminated, and photographed, and if a further period remained, returned to the solution until the end of that further period. A UV transilluminator (300-nm wavelength) was used to illuminate the gel and Polaroid 667 black-and-white film was used to photograph the gel. The gel was not destained before being photographed.
A gel was prepared according to the gel preparation procedure described in connection with Example 15. The gel was then processed as now described. The gel was placed in a fixation solution comprising 50% MeOH and 7% acetic acid for 30 minutes to fix the gel. […] The gel was not destained before being photographed.
A gel was prepared according to the gel preparation procedure described in connection with Example 15. The gel was then processed as now described. The gel was placed in a fixation solution comprising 50% MeOH and 7% acetic acid for 1 hour to fix the gel. […] The gel was not destained before being photographed.
Three gels were prepared, each according to the gel preparation procedure described in connection with Example 15. One of the gels was stained using a staining solution comprising 1.5 μM of [Ru(bpy)3]Cl2 (Aldrich, Milwaukee, Wis.), wherein “bpy” is unsubstituted 2,2′-bipyridine, 30% MeOH and 14% acetic acid. Another of the gels was stained using a staining solution comprising 1.5 μM of [Ru(1,10-phenanthroline)3]Cl2 (Aldrich, Milwaukee, Wis.), 30% MeOH and 14% acetic acid. […] Each gel was stained by incubating it in the appropriate staining solution at room temperature for 90 minutes, whereupon each gel was taken out of the staining solution, illuminated and photographed in the manner described in connection with Example 15. No gel was destained before being photographed.

With `[Cl][Ru][Cl].c1cnc2c(c1)ccc1cccnc12.c1cnc2c(c1)ccc1cccnc12.c1cnc2c(c1)ccc1cccnc12` [[Ru(1,10-phenanthroline)3]Cl2], the “Staining of proteins in gel (yes/no)” value (not destained) is “failed to stain proteins”.

As for `[Cl][Ru][Cl].c1ccc(-c2ccccn2)nc1.c1ccc(-c2ccccn2)nc1.c1ccc(-c2ccccn2)nc1` [[Ru(bpy)3]Cl2], the “Staining of proteins in gel (yes/no)” value (not destained) is “failed to stain proteins”.

Regarding “Re[(bathocuproin disulfonate)(CO)3(4-phenylpyridine)]^−Na^+ [Complex No. 2]”, for the setting “Example 17, FIG. 3: fixed gel, 2 μM complex, 1% ethanol in H2O, overnight, not destained”, the “Protein staining in gel (sensitivity, background)” value was “good sensitivity and relatively low background”. Also, under “Example 17, FIG. 3 versus FIG. 1, without destaining”, the “Protein staining compared with SYPRO Ruby stain” value is “performing at least as well as, if not outperforming, SYPRO Ruby”.
